Each sequence was assayed on PTmAb0005 (assay: Phage display ranking of peptide ligands for PTmAb0005). Conditions: IgEC67-8 mutants (Table 9).
Format: binding
Method: Phage display libraries were used to map the binding sites of the monoclonal antibodies using three different phage libraries, displaying either the XCX15, XCX10 or XAX10 peptide sequence (where X is any amino acid) at the N-terminus of the phage gVIIIp. Tables 6 and 7 show the results of selecting for peptide ligands with the anti human IgE monoclonal antibodies […]. […]
This was performed by introducing random mutations by PCR mutagenesis and sub-cloning into the Fuse 5 vector for minor filamentous phage protein gIIIp display. These, and other results, confirmed the importance of the amino acids within IgEC67 which aligned with the Cε2 epitope. […] Mutations in other sites had little effect on the affinity to PTmAb0005.
This involved a DNA sub-cloning transfer from the major coat protein (gVIIIp) filamentous phage display vector to a lower copy number minor phage coat protein (gIIIp) display vector with a random PCR step. […] Included in the tables are ranking orders and also BIAcore affinities where available.

Sequence	Rel. Rank A	Rel. Rank B
ADGAECFINKQMADRELCAREVAEA [Peptide 2-12, IgEC67-8 mutant clone]	1.22	1.50
ADGAECFINKQRADLELCPGEAAEA [4-2,4-3, IgEC67-8 mutant clone]	1.11	1.60
ADGAECFINRQMADLELCGREAAEA [Peptide 4-4, IgEC67-8 mutant clone]	0.69	1.03
ADGAGCFIDKQMADLELCPRAAAEA [1-9,2-5, IgEC67-8 mutant clone]	1.21	1.41
ADGAGCFIEKQMADMELCQARAAEA [Peptide 1-8, IgEC67-8 mutant clone]	1.08	1.32
ADGAGCFIEKQMADMELCQRETAEA [Peptide 1-1, IgEC67-8 mutant clone]	1.04	1.29
ADGAGCFIKKQMADLELCPREAWEA [Peptide 4-1, IgEC67-8 mutant clone]	1.24	1.52
ADGAGCFINKQMADLELCPARAAEA [Peptide 1-7, IgEC67-8 mutant clone]	0.91	1.25
ADGAGCFINKQMADLELCPREAAEA [2-8,1-13,4-11,1-14, IgEC67-8 sub-library clone]	1.00	1.00
ADGAGCFINKQMADLELCPREGAEA [1-4,1-2,1-12, IgEC67-8 mutant clone]	1.37	1.39
ADGAGCFINKQMADLELCPRQAAEA [3-1,3-9,3-10, IgEC67-8 mutant clone]	1.54	1.85
ADGAGCFINKQMADLELCPSQAAEA [Peptide 4-9, IgEC67-8 mutant clone]	1.38	1.70
ADGAGCFINKQMADLELCRREAGEA [2-9,2-6, IgEC67-8 mutant clone]	1.19	1.54
ADGAGCFINKQMADLELCTREAAEA [Peptide 3-11, IgEC67-8 mutant clone]	1.54	2.02
ADGAGCFINKQMADMELCPREAAEA [Peptide 2-3, IgEC67-8 mutant clone]	1.03	1.31
ADGAGCFINKQMADSELCPAAAAEA [Peptide 1-10, IgEC67-8 mutant clone]	1.10	1.08
ADGAGCFINKQMADSELCPREPAEA [Peptide 5-16, IgEC67-8 mutant clone]	1.29	1.83
ADGAGCFINKQMADWELCPREAAEA [Peptide 5-10, IgEC67-8 mutant clone]	1.05	1.83
ADGAGCFINKQMADWELCPREGAEA [Peptide 2-15, IgEC67-8 mutant clone]	1.44	1.57
ADGAGCFINKQMSDFELCPREAGEA [Peptide 2-13, IgEC67-8 mutant clone]	1.56	2.14
ADGAGCFINMQMADQELCPRAAAEA [Peptide 1-3, IgEC67-8 mutant clone]	1.73	1.31
ADGAGCFINNQMADLELCPREAAEA [Peptide 5-2, IgEC67-8 mutant clone]	1.04	1.24
ADGAGCFINNQMADLELCPRGGAEA [Peptide 1-11, IgEC67-8 mutant clone]	1.45	1.32
ADGAGCFINRQLADMELCSRGAAEA [2-11,2-4,2-10,2-7, IgEC67-8 mutant clone]	0.79	1.39
ADGAGCFINRQMADPELCPREAAEA [Peptide 5-11, IgEC67-8 mutant clone]	1.09	1.97
ADGAGCFISPQLADWKRCMREAAEA [6-9,5-1,6-2,6-8,6-4]	1.53	1.19

— patent publication US20050214285A1, “Epitopes or mimotopes derived from the C-epsilon-3 or C-epsilon-4 domains of IgE, antagonists thereof, and their therapeutic uses” (SmithKline Beecham Biologicals, s.a. and Peptide …, priority 1999, published 2005)
